Test results published in PMC7897990, “TriTOX: A novel Trichomonas vaginalis assay platform for high-throughput screening of compound libraries” (International Journal for Parasitology: Drugs and Drug …, 2021).
Counter-ions that a name gives are not always drawn. Like-named read-outs stand apart in the source and are kept apart here.

Assays:
[1] = tested on: Trichomonas vaginalis G3 trophozoites; assay: microbe, parasite or virus in culture; conditions: 48 h
[2] = tested on: Trichomonas vaginalis G3 trophozoites; conditions: HTS single concentration, parasite screen 1 µg/mL
[3] = tested on: nontumorigenic neonatal foreskin fibroblast (NFF) cell line; conditions: NFF_NS1 screen 5 µg/mL, single concentration
[4] = read-out: T.vaginalis_%inb_Rep1
[5] = read-out: T.vaginalis_%inb_Rep2

Row | Compound | inhibition of growth at 1 µg/mL [1, 4] | inhibition of growth at 1 µg/mL [1, 5] | T.vaginalis_%inb_Rep1 ([2]; replicate 1) | T.vaginalis_%inb_Rep2 ([2]; replicate 2) | NFF_Activity [3]
1 | C=CC(C)(C)[C@@]12C[C@H]3C(=O)N[C@H](CC(C)C)C(=O)N3[C@H]1N(C(C)=O)c1ccccc12 [Verrucofortine] | 7.92% | 9.69% |  |  | 
2 | CC(=O)c1c(O)c(C)c(O)c2c1OC1=CC(=O)C(C(C)=O)C(=O)C12C (centres unmarked) [Usnic acid] | 8.76% | 13.7% |  |  | 
3 | CC[C@@H]1/C=C(\C)C[C@H](C)C[C@H](OC)[C@H]2O[C@@](O)(C(=O)C(=O)N3CCCC[C@H]3C(=O)O[C@H](/C(C)=C/[C@@H]3CC[C@H](Cl)[C@H](OC)C3)[C@H](C)[C@@H](O)CC1=O)[C@H](C)C[C@@H]2OC [Pimecrolimus] | 13% | 14% |  |  | 
4 | CN(C)[C@@H]1C(O)=C(C(N)=O)C(=O)[C@@]2(O)C(O)=C3C(=O)c4c(O)cccc4[C@@](C)(O)[C@H]3[C@H](O)[C@@H]12 [Oxytetracycline] | 13.3% | 10.7% |  |  | 
5 | O=C(O)/C=C/c1c[nH]cn1 [Urocanic acid] | 8.39% | 13.2% |  |  | 
6 | Cc1cc(O)cc(O)c1C(=O)O [Orsellinic acid] | 12.5% | 14.9% |  |  | 
7 | Oc1cc(O)cc(O)c1 [Phloroglucinol] | 13.9% | 12.3% |  |  | 
8 | CO[C@H]1C[C@@H]2CC[C@@H](C)[C@@](O)(O2)C(=O)C(=O)N2CCCC[C@H]2C(=O)O[C@H]([C@H](C)C[C@@H]2CC[C@H](n3cnnn3)[C@H](OC)C2)CC(=O)[C@H](C)/C=C(\C)[C@@H](O)[C@@H](OC)C(=O)[C@H](C)C[C@H](C)/C=C/C=C/C=C/1C [Zotarolimus] | 10.4% | 6.09% |  |  | 
9 | CC[C@@]1([C@@H]2O[C@@H]([C@H]3O[C@@](O)(CO)[C@H](C)C[C@@H]3C)C[C@@H]2C)CC[C@H]([C@]2(C)CC[C@]3(C[C@H](O)[C@@H](C)[C@@H]([C@@H](C)[C@@H](OC)[C@H](C)C(=O)O)O3)O2)O1 [Monensin A] | 12.4% | 16.1% |  |  | 
10 | COc1ccc(C[C@H](N)C(=O)N[C@H]2[C@@H](O)[C@H](n3cnc4c(N(C)C)ncnc43)O[C@@H]2CO)cc1 [Puromycin] | 12% | 10.7% |  |  | 
11 | COc1c(C)c2c(c(O)c1C/C=C(\C)CCC(=O)O)C(=O)OC2 [Mycophenolic acid] | 12.2% | 14.1% |  |  | 
12 | O=C1NC(c2c[nH]c3ccc(O)cc23)=C/C1=C1\C(=O)Nc2ccccc21 [Violacein] | 11.2% | 11.8% |  |  | 
13 | CO[C@@H]1[C@@H](OC(N)=O)[C@@H](O)[C@H](Oc2ccc3c(O)c(NC(=O)c4ccc(O)c(CC=C(C)C)c4)c(=O)oc3c2C)OC1(C)C [Novobiocin] | 4.51% | 4.68% |  |  | 
14 | CN(C)c1ccc(O)c2c1C[C@H]1C[C@H]3[C@H](N(C)C)C(O)=C(C(N)=O)C(=O)[C@@]3(O)C(O)=C1C2=O [Minocycline HCl] | 4.51% | 0.77% |  |  | 
15 | CN(C)[C@H]1C(O)=C(C(N)=O)C(=O)[C@@]2(O)C(O)=C3C(=O)c4c(O)cccc4[C@@](C)(O)[C@H]3C[C@@H]12 [Epitetracycline hydrochloride] | 11% | 4.41% |  |  | 
16 | CC[C@@H](C(=O)O)[C@@H]1O[C@@H]([C@@H](C)[C@H](O)[C@H](C)C(=O)[C@H](CC)[C@H]2O[C@]3(C=C[C@@H](O)[C@]4(CC[C@@](C)([C@H]5CC[C@](O)(CC)[C@H](C)O5)O4)O3)[C@H](C)C[C@@H]2C)[C@@H](C)C[C@@H]1C [Narasin] | 6.14% | 4.3% |  |  | 
17 | COc1c(OC)c(-c2c[nH]c3ccccc23)c(OC)c(OC)c1-c1c[nH]c2ccccc12 [BIA-A1630] |  |  | 13.41% | 14.03% | I (otherwise these were reported as inactive (I))
